Reference: EP0567562B1, “METHODS FOR DETECTING GLUCAGON ANTAGONISTS” (ZYMOGENETICS, INC., priority 1991, dated 1996)

System: glucagon receptor
Assay: Glucagon antagonist screening assay: adenylate cyclase reaction with rat liver membranes, cAMP measured by Scintillation Proximity Assay
Assay type: biochemical
Text: Young female Sprague-Dawley rats were used for the preparation of liver membranes using the method essentially described by Neville (ibid.) and modified by Pohl et al. (ibid). Ten to 15 rats yielding 60-100 grams of liver were processed per batch. After the rats were euthanized by cervical dislocation, their livers were surgically removed and transferred, as quickly as possible, to an iced beaker. Scissors were used to mince the tissue into pieces approximately 3-6 mm in size. Any connective tissue that was present was removed.
The minced tissue was suspended in ice cold 1 mM sodium bicarbonate at a concentration of approximately 300 g/I. This suspension was processed in batches in a tissue homogenizer with eight strokes of the loose pestle. […]
After centrifugation, as much of the supernatant as possible was carefully decanted and discarded, and the pellets were gently resuspended in the remaining supernatant with three strokes of the loose pestle in a clean tissue homogenizer. […] After thorough mixing, the sucrose concentration was measured with a refractometer and adjusted to between 43.9% and 44 1% sucrose (corresponding to a refractive index between 1.4076 and 1.4080) with either 69% sucrose or water. […]

| antagonist activity: CAMP response of rat liver membranes to three concentrations of glucagon (culture broth of the yeast strain, compared with control strains making des-His^1-glucagon and des-His^1-[Glu^9]glucagon) | Compound | stimulation of adenylate cyclase activity by culture broth in the absence of exogenous glucagon (yeast culture broth, no exogenous glucagon) |
| --- | --- | --- |
| weak antagonist | CSCC[C@H](NC(=O)[C@H](CC(C)C)NC(=O)[C@H](Cc1c[nH]c2ccccc12)NC(=O)[C@H](CCC(N)=O)NC(=O)[C@@H](NC(=O)[C@H](Cc1ccccc1)NC(=O)[C@H](CC(=O)O)NC(=O)[C@H](CCC(N)=O)NC(=O)[C@H](C)NC(=O)[C@H](CCCNC(=N)N)NC(=O)[C@H](CCCNC(=N)N)NC(=O)[C@H](CO)NC(=O)[C@H](CC(=O)O)NC(=O)[C@H](CC(C)C)NC(=O)[C@H](Cc1ccc(O)cc1)NC(=O)[C@H](CCCCN)NC(=O)[C@H](CO)NC(=O)[C@H](Cc1ccc(O)cc1)NC(=O)[C@H](CC(=O)O)NC(=O)[C@H](CO)NC(=O)[C@@H](NC(=O)[C@H](Cc1ccccc1)NC(=O)[C@@H](NC(=O)CNC(=O)[C@H](CCC(N)=O)NC(=O)[C@@H](N)CO)[C@@H](C)O)[C@@H](C)O)C(C)C)C(=O)N[C@@H](CC(N)=O)C(=O)N[C@H](C(=O)O)[C@@H](C)O [des-His^1-glucagon] |  |
|  | glucagon [ZB210] | stimulation of adenylate cyclase activity even in the absence of exogenous glucagon |
